# Reference: patent US9802939
# Where two headings read alike, the source gives them in different places.
# Conditions: 12-membered ring
Compound,"ring closure, isolated yield (from C=CCCOc1ccccc1-c1cn(COCC[Si](C)(C)C)c([C@H](CC=C)NC(=O)OC(C)(C)C)n1, rcm bond, Grubbs II (1 eq)/pTsOH, DCM, 1.02 mM, 40.0 °C)","ring closure, isolated yield (from COC(=O)Nc1ccc(-c2cn(COCC[Si](C)(C)C)c([C@H](CN(CCC(=O)O)C(=O)OC(C)(C)C)NC(=O)OCc3ccccc3)n2)c(N)c1, amide bond, BOP/DIEA, DCM/DMF, 0.93 mM, 25.0 °C)"
CC(C)(C)OC(=O)N[C@H]1CC=CCCOc2ccccc2-c2cn(COCC[Si](C)(C)C)c1n2,20%,
COC(=O)Nc1ccc2c(c1)NC(=O)CCN(C(=O)OC(C)(C)C)C[C@H](NC(=O)OCc1ccccc1)c1nc-2cn1COCC[Si](C)(C)C,,87%
